Results from ChEMBL document CHEMBL5724914, “Linking interpersonal differences in gut microbiota composition and drug biotransformation activity” (2024).

Tests used:
[1] = The drug is tested on Z-024 corresponding to pig gut metagenome with ENA study accession number: PRJEB37062 and ENA sample accession number: ERS12561823 for biotransformation under anaerobic condition. The drug concentrations were measured over 9 timepoints collected between 0 and 24 hours of incubation by liquid-chromatography-coupled mass spectrometry (LC–MS); conditions: 2 µM
[2] = The drug is tested on Z-013 corresponding to rabbit gut metagenome with ENA study accession number: PRJEB37062 and ENA sample accession number: ERS12561813 for biotransformation under anaerobic condition. The drug concentrations were measured over 9 timepoints collected between 0 and 24 hours of incubation by liquid-chromatography-coupled mass spectrometry (LC–MS); conditions: 2 µM
[3] = The drug is tested on Z-007 corresponding to rat gut metagenome with ENA study accession number: PRJEB37062 and ENA sample accession number: ERS12561807 for biotransformation under anaerobic condition. The drug concentrations were measured over 9 timepoints collected between 0 and 24 hours of incubation by liquid-chromatography-coupled mass spectrometry (LC–MS); conditions: 2 µM
[4] = The drug is tested on Z-005 corresponding to metagenome with ENA study accession number: PRJEB37062 and ENA sample accession number: ERS12561805 for biotransformation under anaerobic condition. The drug concentrations were measured over 9 timepoints collected between 0 and 24 hours of incubation by liquid-chromatography-coupled mass spectrometry (LC–MS); conditions: 2 µM
[5] = The drug is tested on Z-002 corresponding to rabbit gut metagenome with ENA study accession number: PRJEB37062 and ENA sample accession number: ERS12561802 for biotransformation under anaerobic condition. The drug concentrations were measured over 9 timepoints collected between 0 and 24 hours of incubation by liquid-chromatography-coupled mass spectrometry (LC–MS); conditions: 2 µM
[6] = The drug is tested on WLS-052 corresponding to human gut metagenome with ENA study accession number: PRJEB37062 and ENA sample accession number: ERS12561747 for biotransformation under anaerobic condition. The drug concentrations were measured over 9 timepoints collected between 0 and 24 hours of incubation by liquid-chromatography-coupled mass spectrometry (LC–MS); conditions: 2 µM
[7] = The drug is tested on WLS-038 corresponding to human gut metagenome with ENA study accession number: PRJEB37062 and ENA sample accession number: ERS12561745 for biotransformation under anaerobic condition. The drug concentrations were measured over 9 timepoints collected between 0 and 24 hours of incubation by liquid-chromatography-coupled mass spectrometry (LC–MS); conditions: 2 µM
[8] = The drug is tested on WLS-027 corresponding to human gut metagenome with ENA study accession number: PRJEB37062 and ENA sample accession number: ERS12561744 for biotransformation under anaerobic condition. The drug concentrations were measured over 9 timepoints collected between 0 and 24 hours of incubation by liquid-chromatography-coupled mass spectrometry (LC–MS); conditions: 2 µM
[9] = The drug is tested on WLS-007 corresponding to human gut metagenome with ENA study accession number: PRJEB37062 and ENA sample accession number: ERS12561742 for biotransformation under anaerobic condition. The drug concentrations were measured over 9 timepoints collected between 0 and 24 hours of incubation by liquid-chromatography-coupled mass spectrometry (LC–MS); conditions: 2 µM
[10] = human gut metagenome, 24 h, 2 µM
[11] = human gut metagenome, 24 h, 2 µM; remark: listed apart in the source
[12] = human gut metagenome, 24 h, 2 µM; remark: listed apart in the source
[13] = human gut metagenome, 24 h, 2 µM; remark: listed apart in the source
[14] = human gut metagenome, 24 h, 2 µM; remark: listed apart in the source
[15] = human gut metagenome, 24 h, 2 µM; remark: listed apart in the source
[16] = human gut metagenome, 24 h, 2 µM; remark: listed apart in the source
[17] = The drug is tested on Z-028 corresponding to mouse gut metagenome with ENA study accession number: PRJEB37062 and ENA sample accession number: ERS12561827 for biotransformation under anaerobic condition. The drug concentrations were measured over 9 timepoints collected between 0 and 24 hours of incubation by liquid-chromatography-coupled mass spectrometry (LC–MS); conditions: 2 µM
[18] = The drug is tested on Z-027 corresponding to metagenome with ENA study accession number: PRJEB37062 and ENA sample accession number: ERS12561826 for biotransformation under anaerobic condition. The drug concentrations were measured over 9 timepoints collected between 0 and 24 hours of incubation by liquid-chromatography-coupled mass spectrometry (LC–MS); conditions: 2 µM
[19] = The drug is tested on Z-022 corresponding to mouse gut metagenome with ENA study accession number: PRJEB37062 and ENA sample accession number: ERS12561821 for biotransformation under anaerobic condition. The drug concentrations were measured over 9 timepoints collected between 0 and 24 hours of incubation by liquid-chromatography-coupled mass spectrometry (LC–MS); conditions: 2 µM
Note: call rule not given here.

Structure (SMILES): CCC1(c2ccc(N)cc2)CCC(=O)NC1=O (centres undefined) [AMINOGLUTETHIMIDE]
- Bacterial Biotransformation [1]: Compound metabolized
- Bacterial Biotransformation [2]: Compound NOT metabolized
- Bacterial Biotransformation [3]: Compound NOT metabolized
- Bacterial Biotransformation [4]: Compound NOT metabolized
- Bacterial Biotransformation [5]: Compound NOT metabolized
- Bacterial Biotransformation [6]: Compound NOT metabolized
- Bacterial Biotransformation [7]: Compound NOT metabolized
- Bacterial Biotransformation [8]: Compound NOT metabolized
- Bacterial Biotransformation [9]: Compound NOT metabolized
- Bacterial Biotransformation [10]: Compound NOT metabolized
- Bacterial Biotransformation [11]: Compound NOT metabolized
- Bacterial Biotransformation [12]: Compound NOT metabolized
- Bacterial Biotransformation [13]: Compound NOT metabolized
- Bacterial Biotransformation [14]: Compound NOT metabolized
- Bacterial Biotransformation [15]: Compound NOT metabolized
- Bacterial Biotransformation [16]: Compound NOT metabolized

Structure (SMILES): C[C@@H]1CC[C@H]2[C@@H](C)C(=O)O[C@@H]3O[C@@]4(C)CC[C@@H]1[C@]32OO4 [ARTEMISININ]
- Bacterial Biotransformation [17]: Compound metabolized
- Bacterial Biotransformation [18]: Compound metabolized
- Bacterial Biotransformation [1]: Compound metabolized
- Bacterial Biotransformation [19]: Compound metabolized
- Bacterial Biotransformation [6]: Compound metabolized
- Bacterial Biotransformation [7]: Compound metabolized
- Bacterial Biotransformation [8]: Compound metabolized
- Bacterial Biotransformation [9]: Compound metabolized
- Bacterial Biotransformation [10]: Compound metabolized
- Bacterial Biotransformation [11]: Compound metabolized
- Bacterial Biotransformation [12]: Compound metabolized
- Bacterial Biotransformation [13]: Compound metabolized
- Bacterial Biotransformation [14]: Compound NOT metabolized
- Bacterial Biotransformation [15]: Compound metabolized
- Bacterial Biotransformation [16]: Compound metabolized

Structure (SMILES): COc1ccccc1N1CCN(CC(O)COc2cccc3ccccc23)CC1 (centres undefined) [NAFTOPIDIL]
- Bacterial Biotransformation [17]: Compound metabolized
- Bacterial Biotransformation [1]: Compound metabolized
- Bacterial Biotransformation [19]: Compound metabolized
- Bacterial Biotransformation [2]: Compound NOT metabolized
- Bacterial Biotransformation [3]: Compound NOT metabolized
- Bacterial Biotransformation [4]: Compound NOT metabolized
- Bacterial Biotransformation [5]: Compound NOT metabolized
- Bacterial Biotransformation [6]: Compound NOT metabolized
- Bacterial Biotransformation [7]: Compound NOT metabolized
- Bacterial Biotransformation [8]: Compound NOT metabolized
- Bacterial Biotransformation [9]: Compound NOT metabolized
- Bacterial Biotransformation [10]: Compound NOT metabolized
- Bacterial Biotransformation [11]: Compound NOT metabolized
- Bacterial Biotransformation [12]: Compound NOT metabolized
- Bacterial Biotransformation [13]: Compound NOT metabolized
- Bacterial Biotransformation [14]: Compound NOT metabolized
- Bacterial Biotransformation [15]: Compound NOT metabolized
- Bacterial Biotransformation [16]: Compound NOT metabolized
